Data on one compound can be found in US20250019644A1, “Quantitatively Mapping Amino Acid Properties (QMAP) Cell Culture Media” (UNIVERSITY OF IOWA RESEARCH FOUNDATION, priority 2023, published 2025).

In one assay the test system is HCT116 cells. Nature of the assay: Screen 2: metabolic profiling with unlabeled amino acids (LC-MS). In kind it is cell-based, human. The following applies: 0.5, 1, 2 mM, dose-dependent, 6 hours. As for the experimental part:
Media was changed to QMAP plus individual amino acid treatments at the start of the experiment. 200 mM amino acid stocks were used to make the QMAP+individual amino acid treatment medias that were placed in the tissue culture incubator for 30-45 minutes prior to the start of the dosing for equilibration of media bicarbonate with incubator CO2. For metabolomic profiling experiments, cells were treated with additional amino acid doses of 0.5, 1 and 2 mM, and 1 mM was used for stable isotope tracing experiments. To minimize systematic error, each amino acid dose was added as a batch (20 amino acids+vehicle control) such that each well of each plate contained a different amino acid. The process was repeated for the other two concentrations of amino acids on the next plates to make set. This was repeated four more times to achieve the sample size of 5 replicates for each of the 3 doses of amino acids. Each plate was then incubated for 6 hours in the tissue culture incubator before being rapidly washed twice with sterile water and snap frozen on liquid nitrogen before being stored at −80° C. The next day, the plates were lyophilized for 90 minutes and then stored at −80° C.
Extraction buffer was prepared by adding 2:2:1 methanol: acetonitrile: water. For profiling, the following internal standards (Cambridge Isotope Laboratories) were added at 1 μg/mL each: L-Valine-D8, L-Aspartate (^13C4, D3, ^15N) and Succinate (13C4D4). 6-well plates were removed from storage at −80° C. and 1 ml of ice-cold extraction buffer was added. Plates were incubated at −20° C. for 5 minutes, scraped, transferred to microcentrifuge tubes and frozen in liquid nitrogen. Tubes were then placed into a sonicating water bath for 10 minutes and rotated at −20° C. for 1 hour before being centrifuged at 4° C. for 10 minutes at 21,000×g. […] of extract was dried down completely using a speed-vacuum (˜90 min), dissolved in […] of acetonitrile: water (1:1), vortexed for 10 min, and stored overnight at −20° C. to allow protein precipitation. Samples were then centrifuged at 4° C. for 10 minutes at 21,000×g and the supernatants were transferred into autosampler vials for analysis. For the QCs, […] of each extract was pooled, at the step prior to drying down, mixed and dried in […] amounts alongside the samples. Once dried, QCs were processed with the samples but recombined prior to being aliquoted into autosampler vials. All samples were then frozen at −80° C., and only one set of samples, which included a QC aliquot, was thawed, vortexed and placed into the instrument.
The sheath gas flow was set to 40 units, the auxiliary gas flow was set to 15 units and the sweep gas flow was set to 1 unit. […] For tracing, […] of sample was injected twice in either positive or negative mode to maximize detection efficiency and minimize metabolite crowding using the Sim-mode.
LC-MS data was processed using the Thermo Scientific TraceFinder 5.1 software.
The three cell lines were then treated with 0.5, 1, and 2 mM of individual, unlabeled amino acids, and metabolic profiling was performed to determine how individual amino acids quantitatively altered metabolite abundance (Screen 2).

In a further assay the test system is HT29. As to the kind of experiment: CellTiter-Glo Luminescent Cell Viability Assay. The following applies: 2 mM, 24 hours, DMEM. It counts as cell-based, human. Here is the method:
(§1) HT29, 293T, U2OS, and 3T3-LI cells were plated on an opaque 96-well plate in 1:1 DMEM. […] At the appropriate time point, 100 μl of CellTiter-Glo reagent (Promega #G7570) was added to each well. The plate was gently mixed for 2 minutes to induce lysis, incubated at room-temperature for 10 minutes, and then luminescence was measured.
(§2) To test whether tryptophan inhibition of growth applied to other cell lines and persisted in conventional cell culture media, two human cancer cell lines (HT29, U2OS), a transformed human embryonic kidney cell line (293T), and a mouse, fibroblast-like cell line (3T3-L1) were grown in DMEM for 24 hours and then treated with 2 mM tryptophan or vehicle. After 24 hours, cells were assayed by CellTiter-Glo, which indicates cell viability by measuring ATP production.

Another assay has as its system 293T. Nature of the assay: CellTiter-Glo Luminescent Cell Viability Assay. In kind it is cell-based, human. Conditions: 2 mM, 24 hours, DMEM. Here is the method:
as §1, §2

The subject of another assay is 3T3-L1. Nature of the assay: CellTiter-Glo Luminescent Cell Viability Assay. Conditions: 2 mM, 24 hours, DMEM. It counts as cell-based, mouse. As for the experimental part: as §1, §2
For a further assay, the system named is U2OS. As to the kind of experiment: CellTiter-Glo Luminescent Cell Viability Assay. It counts as cell-based, human. The following applies: 2 mM, 24 hours, DMEM. Here is the method:
as §1
To test whether tryptophan inhibition of growth applied to other cell lines and persisted in conventional cell culture media, two human cancer cell lines (HT29, U2OS), a transformed human embryonic kidney cell line (293T), and a mouse, fibroblast-like cell line (3T3-L1) were grown in DMEM for 24 hours and then treated with 2 mM tryptophan or vehicle. […]

For the compound `N[C@@H](Cc1c[nH]c2ccccc12)C(=O)O` [tryptophan, L-tryptophan], the “distal TCA cycle metabolite levels (alpha-ketoglutarate to malate)” value with HCT116 cells is on record as “decreased”. Moreover, the glutamine levels entry in the assay on HCT116 cells is reported as “increased”. Besides, the “cell viability compared to vehicle” value in the assay with HT29, in the assay with 293T, with 3T3-L1 and in the assay with U2OS was “significant decreases” throughout.
